# Results from US11759461B2, “Small molecule inhibitors of cancer stem cells and mesenchymal cancer types” (The Scripps Research Institute, priority 2017, dated 2023).
# Like-named read-outs stand apart in the source and are kept apart here.
# Test system: FOXC2-expressing HMLER cells
# Test: Cell Titer Glo viability of FOXC2-HMLER cells (high throughput screen and 10-point response)
# Type: cell-based
# Settings: Homo sapiens, 72 hours
# Procedure, shortened: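 Viability after 72 h compound exposure was measured as Cell Titer Glo luminescence. FOXC2-HMLER and parental HMLER cells, 1,000 per well in MEGM medium, were dosed 1 h after plating; screening concentration was 2 μM.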
# [1] = scored relative to parent compound 2, read-out: Activity Score, inhibition of FOXC2-expressing HMLER cells by Formula II compounds
# [2] = scored relative to parent compound 3, read-out: Activity Score, inhibition of FOXC2-expressing HMLER cells by Formula III compounds
# [3] = scored relative to parent compound 4, read-out: Activity Score, inhibition of FOXC2-expressing HMLER cells by Formula IV compounds
# [4] = scored relative to parent compound 1, read-out: Activity Score, inhibition of FOXC2-expressing HMLER cells by Formula I compounds
structure (smiles),measurement,setting,value
CCc1ccc(NCc2cc3ccc(OC)cc3n(CC(=O)Nc3ccccc3Cl)c2=O)cc1 [Compound 2HC],IC50,[1],> 20 µM
Cc1ccc(C)c(N2CCN(CCCNC(=O)c3cccc(-n4nnc5cccnc54)c3C)CC2)c1 [Compound 3AH],IC50,[2],1 to 20 µM
Cc1ccc(-n2nc(N3CCN(S(=O)(=O)c4cnn(C(F)F)c4C)CC3)ccc2=O)cc1C [Compound 4AK],IC50,[3],> 20 µM
COc1ccc2cc(CNc3ccc(C)cc3)c(=O)n(CC(=O)Nc3ccc(C(C)C)cc3)c2c1 [Compound 2ER],IC50,[1],> 20 µM
CCOc1ccc(NC(=O)Cn2c(=O)c(CNc3ccccc3)cc3cc4c(cc32)OCCO4)cc1 [Compound 2GW],IC50,[1],> 20 µM
COc1ccc2cc(CNc3ccccc3)c(=O)n(CC(=O)Nc3ccc(Cl)cc3)c2c1 [Compound 2CA],IC50,[1],> 20 µM
COc1ccc(NCc2cc3ccc(OC)cc3n(CC(=O)Nc3ccc(C(C)C)cc3)c2=O)cc1 [Compound 2AV],IC50,[1],> 20 µM
Cc1ccc(C)c(N2CCN(CCCNC(=O)c3ccc(C)c(-n4nnc5cccnc54)c3)CC2)c1 [Compound 3AC],IC50,[2],1 to 20 µM
COc1ccc2cc(CNc3ccccc3)c(=O)n(CC(=O)Nc3ccc(C(C)C)cc3)c2c1 [Compound 2DS],IC50,[1],> 20 µM
Cc1cccc(CNC(=O)c2cccc(-n3nnc4cccnc43)c2C)c1 [Compound 3BQ],IC50,[2],> 20 µM
COc1ccc2cc(CNc3ccccc3)c(=O)n(CC(=O)Nc3cccc(Cl)c3)c2c1 [Compound 2BX],IC50,[1],> 20 µM
COc1ccc2cc(CNc3ccc(C)cc3)c(=O)n(CC(=O)Nc3cc(C)cc(C)c3)c2c1 [Compound 2BJ],IC50,[1],> 20 µM
Cc1c(S(=O)(=O)N2CCCN(c3ccc(=O)n(-c4ccc(F)cc4)n3)CC2)cnn1C(F)F [Compound 4AG],IC50,[3],> 20 µM
COc1ccc(NC(=O)Cn2c(=O)c(CNc3ccc(C)cc3)cc3ccc(OC)cc32)cc1 [Compound 2EI],IC50,[1],> 20 µM
COc1ccc2cc(CNc3ccccc3)c(=O)n(CC(N)=O)c2c1 [Compound 2HB],IC50,[1],> 20 µM
COc1cc2cc(CNc3ccc(C)cc3)c(=O)n(CC(=O)Nc3cc(C)cc(C)c3)c2cc1OC [Compound 2DJ],IC50,[1],> 20 µM
Cc1ccc(C(=O)N2CCN(c3ccc(F)cc3)CC2)cc1-n1nnc2cccnc21 [Compound 3AA],IC50,[2],1 to 20 µM
CCc1ccc(NCc2cc3ccc(OC)cc3n(CC(=O)Nc3cc(C)ccc3C)c2=O)cc1 [Compound 2AN],IC50,[1],1 to 20 µM
CCc1ccc(NCc2cc3ccc(OC)cc3n(CC(=O)Nc3ccc(OC)cc3)c2=O)cc1 [Compound 2IL],IC50,[1],> 20 µM
Cc1nn(C)c(C)c1S(=O)(=O)N1CCN(c2cccc(Cl)c2)CC1 [Compound 4N],IC50,[3],> 20 µM
Cc1ccc(Cl)cc1N1CCN(C(=O)c2ccc(C)c(-n3nnc4cccnc43)c2)CC1 [Compound 3Y],IC50,[2],1 to 20 µM
Cc1cccc(N2CCN(S(=O)(=O)c3c(C)nn(-c4ccc(-c5ccccc5)nn4)c3C)CC2)c1 [Compound 4AQ],IC50,[3],> 20 µM
COc1ccc2cc(CNc3ccc(C)cc3)c(=O)n(CC(N)=O)c2c1 [Compound 2FN],IC50,[1],> 20 µM
COc1cc2cc(CNc3ccccc3)c(=O)n(CC(=O)Nc3cc(C)cc(C)c3)c2cc1OC [Compound 2GG],IC50,[1],> 20 µM
O=C(NCCCN1CCN(Cc2ccccc2)CC1)c1cccc(-n2nnc3cccnc32)c1 [Compound 3BA],IC50,[2],> 20 µM
COc1cc2cc(CNc3ccccc3)c(=O)n(CC(=O)Nc3cccc(C)c3)c2cc1OC [Compound 2EH],IC50,[1],> 20 µM
COC(=O)c1ccccc1NC(=O)Cn1c(=O)c(CNc2ccccc2)cc2ccc(OC)cc21 [Compound 2],IC50,[1],< 1 µM
Cc1c(C(=O)NC2CCCCCC2)cccc1-n1nnc2cccnc21 [Compound 3BO],IC50,[2],> 20 µM
O=C(c1ccc(-n2nnc3cccnc32)cc1)N1CCN(c2ccc(F)cc2)CC1 [Compound 3C],IC50,[2],< 1 µM
CCOC(=O)c1ccccc1NC(=O)Cn1c(=O)c(CNc2ccccc2)cc2ccc(OC)cc21 [Compound 2C],IC50,[1],< 1 µM
CCOc1ccc(NC(=O)Cn2c(=O)c(CNc3ccc(CC)cc3)cc3ccc(OC)cc32)cc1 [Compound 2Z],IC50,[1],1 to 20 µM
Cc1nn(C)c(C)c1S(=O)(=O)N1CCN(c2ccccc2F)CC1 [Compound 4P],IC50,[3],> 20 µM
COc1ccc2c(c1)cc(CNc1ccc(OC)c(OC)c1)c(=O)n2CC(=O)Nc1ccccc1C [Compound 2BE],IC50,[1],> 20 µM
CCc1ccc(NCc2cc3ccc(OC)cc3n(CC(=O)Nc3cc(Cl)ccc3C)c2=O)cc1 [Compound 2GS],IC50,[1],> 20 µM
COc1cc2cc(CNc3ccccc3)c(=O)n(CC(=O)Nc3cccc(Cl)c3C)c2cc1OC [Compound 2Y],IC50,[1],1 to 20 µM
Cc1ccc(C(=O)NCCCN2CCN(c3cccc(Cl)c3)CC2)cc1-n1nnc2cccnc21 [Compound 3BK],IC50,[2],> 20 µM
COc1ccc2cc(CNc3ccc(C)cc3)c(=O)n(CC(=O)Nc3ccc(F)c(F)c3)c2c1 [Compound 2G],IC50,[1],1 to 20 µM
CCc1ccc(NCc2cc3ccc(OC)cc3n(CC(=O)Nc3cccc(C)c3)c2=O)cc1 [Compound 2HG],IC50,[1],> 20 µM
COc1ccc(NCc2cc3cc(C)ccc3n(CC(=O)Nc3cc(C)cc(C)c3)c2=O)cc1 [Compound 2IJ],IC50,[1],> 20 µM
Clc1ccc(Cl)c(N2CCN(c3cnnc4c(Cl)cccc34)CC2)c1 [Compound 1SRAB],IC50,[4],1 to 20 µM
Cc1ccc(C(=O)N2CCC(Cc3ccccc3)CC2)cc1-n1nnc2cccnc21 [Compound 3Z],IC50,[2],1 to 20 µM
Cc1c(C(=O)NCc2ccc(N(C)C)cc2)cccc1-n1nnc2cccnc21 [Compound 3CG],IC50,[2],> 20 µM
Cc1c(C(=O)N2CCC(Cc3ccccc3)CC2)cccc1-n1nnc2cccnc21 [Compound 3AF],IC50,[2],1 to 20 µM
Cc1c(C(=O)NCCCN2CCN(C3CCCCC3)CC2)cccc1-n1nnc2cccnc21 [Compound 3CH],IC50,[2],> 20 µM
COc1ccc2cc(CNc3ccccc3)c(=O)n(CC(=O)Nc3ccccc3OC)c2c1 [Compound 2CS],IC50,[1],> 20 µM
COc1ccc2cc(CNc3ccc(C)cc3)c(=O)n(CC(=O)Nc3ccc(OC)c(Cl)c3)c2c1 [Compound 2GX],IC50,[1],> 20 µM
Clc1ccc2c(N3CCNCC3)ccnc2c1 [Compound 1G],IC50,[4],> 20 µM
Cc1ccc(NC(=O)Cn2c(=O)c(CNc3ccccc3)cc3cc4c(cc32)OCCO4)cc1 [Compound 2GJ],IC50,[1],> 20 µM
COc1ccc2cc(CNc3ccc(C)cc3)c(=O)n(CC(=O)Nc3ccccc3OC)c2c1 [Compound 2HD],IC50,[1],> 20 µM
CCc1ccc(NC(=O)Cn2c(=O)c(CNc3ccc(C)cc3)cc3ccc(OC)cc32)cc1 [Compound 2CU],IC50,[1],> 20 µM
CCOc1ccc(NC(=O)Cn2c(=O)c(CNc3ccc(C)cc3)cc3cc4c(cc32)OCCO4)cc1 [Compound 2S],IC50,[1],1 to 20 µM
Cc1c(C(=O)N2CCC(N3CCCCC3)CC2)cccc1-n1nnc2cccnc21 [Compound 3BR],IC50,[2],> 20 µM
Cc1c(C(=O)N2CCN(c3cccc(Cl)c3)CC2)cccc1-n1nnc2cccnc21 [Compound 3B],IC50,[2],< 1 µM
Cc1c(C(=O)NC2CC2)cccc1-n1nnc2cccnc21 [Compound 3AE],IC50,[2],1 to 20 µM
COc1ccc(N2CCN(C(=O)c3ccc(-n4nnc5cccnc54)c(C)c3)CC2)cc1 [Compound 3AS],IC50,[2],> 20 µM
Cc1nn(C)c(C)c1S(=O)(=O)N(CC(=O)N1CCN(c2ncccn2)CC1)c1ccc(C(C)C)cc1 [Compound 4Q],IC50,[3],> 20 µM
Cc1cccc(C)c1NC(=O)Cn1c(=O)c(CNc2ccccc2)cc2cc3c(cc21)OCCO3 [Compound 2GU],IC50,[1],> 20 µM
O=C(NC1CCN(Cc2ccccc2)CC1)c1cccc(-n2nnc3cccnc32)c1 [Compound 3AY],IC50,[2],> 20 µM
O=C(c1ccc(-n2nnc3cccnc32)cc1)N1CCN(C2CCCCC2)CC1 [Compound 3AN],IC50,[2],> 20 µM
COc1cc2cc(CNc3ccc(C)cc3)c(=O)n(CC(=O)Nc3ccc(Cl)cc3)c2cc1OC [Compound 2FH],IC50,[1],> 20 µM
O=C(c1ccc(-n2nnc3cccnc32)cc1)N1CCN(c2ccccc2)CC1 [Compound 3AM],IC50,[2],> 20 µM
CCc1ccc(NCc2cc3ccc(OC)cc3n(CC(=O)Nc3cccc(Cl)c3)c2=O)cc1 [Compound 2BT],IC50,[1],> 20 µM
Cc1ccccc1N1CCN(S(=O)(=O)c2c(C)nn(-c3ccc(-c4ccccc4)nn3)c2C)CC1 [Compound 4AR],IC50,[3],> 20 µM
COc1ccc(NC(=O)Cn2c(=O)c(CNc3ccc(C)cc3)cc3cc4c(cc32)OCCO4)cc1 [Compound 2CR],IC50,[1],> 20 µM
Cc1c(S(=O)(=O)N2CCN(C)c3ccccc32)cnn1C(F)F [Compound 4AN],IC50,[3],> 20 µM
Cc1ccc(N2CCN(S(=O)(=O)c3c(C)nn(-c4ccc(-c5ccccc5)nn4)c3C)CC2)cc1 [Compound 4AS],IC50,[3],> 20 µM
CCc1ccc(NCc2cc3cc4c(cc3n(CC(=O)Nc3ccc(OC)cc3)c2=O)OCCO4)cc1 [Compound 2AL],IC50,[1],1 to 20 µM
CCN(Cc1ccccc1)C(=O)c1ccc(-n2nnc3cccnc32)cc1 [Compound 3AO],IC50,[2],> 20 µM
COc1ccc2cc(CNc3ccccc3)c(=O)n(CC(=O)Nc3ccc(F)c(F)c3)c2c1 [Compound 2EJ],IC50,[1],> 20 µM
COc1cccc(CNC(=O)Cn2c(=O)c(CNc3ccccc3)cc3ccc(OC)cc32)c1 [Compound 2BB],IC50,[1],> 20 µM
COc1ccc2cc(CNc3ccc(C)cc3)c(=O)n(CC(=O)Nc3cccc(Cl)c3C)c2c1 [Compound 2H],IC50,[1],1 to 20 µM
Cc1ccc(-n2nc(C)c(S(=O)(=O)N3CCN(c4ccc(Cl)cc4)CC3)c2C)cc1 [Compound 4AD],IC50,[3],> 20 µM
COc1ccc2cc(CNc3ccccc3)c(=O)n(CC(=O)Nc3ccc(C)cc3)c2c1 [Compound 2ET],IC50,[1],> 20 µM
Fc1ccc(N2CCN(c3cnnc4c(Cl)cccc34)CC2)cc1Cl [Compound 1SRJ],IC50,[4],1 to 20 µM
CCc1ccc(NCc2cc3ccc(OC)cc3n(CC(=O)Nc3ccc4c(c3)OCCO4)c2=O)cc1 [Compound 2FR],IC50,[1],> 20 µM
Cc1cc(C(=O)N2CCN(c3ccccc3)CC2)ccc1-n1nnc2cccnc21 [Compound 3L],IC50,[2],1 to 20 µM
